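A five-concentration, 48-hour dose response in 96-well plates underlies each endpoint, interpolated linearly between surrounding concentrations. The concentration for 50% growth inhibition is given as GI50.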 The source made the active and inactive calls. Cut-off read from the data, not from the text of the source: active = GI50 up to about 1.1 µM and inactive = higher.
What was measured:
Test in all cases: NCI tumour cell line growth inhibition, 48 h
[1] = test system: A549
[2] = test system: ACHN
[3] = test system: CAKI-1
[4] = test system: CCRF-CEM
[5] = test system: COLO 205
[6] = test system: IGROV-1
[7] = test system: Malme-3M
[8] = test system: NCI-H226
[9] = test system: OVCAR-5
[10] = test system: OVCAR-8
[11] = test system: SF-268
[12] = test system: SF-539
[13] = test system: SK-MEL-28
[14] = test system: SK-MEL-2
[15] = test system: SNB-75
[16] = test system: SW-620
[17] = test system: TK-10
[18] = test system: UO-31
[19] = test system: MDA-MB-231

Measured: GI50

CCN(CC)CC(C(C)=O)C(c1ccccc1)c1c(O)c2ccccc2oc1=O (stereo unspecified)
inactive: [1] > 100 µM | [2] > 100 µM | [3] > 100 µM | [4] > 100 µM | [5] > 100 µM | [6] > 100 µM | [7] > 100 µM | [8] > 100 µM | [9] > 100 µM | [10] > 100 µM | [11] > 100 µM | [12] > 100 µM | [13] > 100 µM | [14] > 100 µM | [15] 42.4 µM | [16] > 100 µM | [17] > 100 µM | [18] > 100 µM

O=C(CCc1nnc2s/c(=C\c3ccccc3)c(=O)n12)Nc1cc(Cl)ccc1Cl
inactive: [1] > 100 µM | [2] > 100 µM | [3] > 100 µM | [4] > 100 µM | [5] > 100 µM | [6] > 100 µM | [7] > 100 µM | [8] > 100 µM | [9] > 100 µM | [10] > 100 µM | [11] > 100 µM | [12] > 100 µM | [13] > 100 µM | [14] > 100 µM | [15] > 100 µM | [16] 4.15 µM | [17] > 100 µM | [18] > 100 µM

CCCCC1(OC(=O)CCC(=O)O)CCC2(CCC(C)C(C/C=C(C)/C=C/C(O)C(C)/C=C/C(=O)O)O2)OC1CC/C(C)=C/C(=O)O (stereo unspecified)
inactive: [1] 12.2 µM | [2] 5.74 µM | [3] 4.14 µM | [4] 3.94 µM | [5] 16.6 µM | [6] 1.47 µM | [7] 7.73 µM | [8] 2.14 µM | [9] 3.94 µM | [10] 2.84 µM | [11] 2.51 µM | [12] 1.77 µM | [13] 2.02 µM | [14] 1.71 µM | [15] 2.31 µM | [16] 8.3 µM | [17] 17 µM | [18] 2.97 µM

Cc1cc(Cl)cc2c1NC(=O)C2=O.O=C(c1ccccc1)C(F)(F)F
inactive: [1] 52.2 µM | [2] 75.7 µM | [3] 39.3 µM | [4] 17.2 µM | [5] 57.7 µM | [6] > 100 µM | [7] 45.6 µM | [8] > 100 µM | [9] > 100 µM | [10] 55.5 µM | [11] > 100 µM | [12] 47.9 µM | [13] 93.1 µM | [14] 36 µM | [15] 41.1 µM | [16] 72.8 µM | [17] 57.5 µM | [18] 91.6 µM

CC(Br)C(=O)c1ccc2cc(Br)c3ccccc3c2c1 (stereo unspecified)
inactive: [1] 20 µM | [2] 17.6 µM | [3] 16.1 µM | [4] 2.45 µM | [6] 13.1 µM | [19] 16.3 µM | [7] 15.1 µM | [9] 17 µM | [10] 14 µM | [11] 16.3 µM | [13] 18.6 µM | [14] 13.2 µM | [15] 15.2 µM | [16] 6.01 µM | [17] 19 µM | [18] 17.6 µM

CC(C)=CCC/C(C)=C/CC/C(C)=C/CC/C=C(\C)CC/C=C(\C)CCC1SC1(C)C (stereo unspecified)
inactive: [1] > 100 µM | [2] > 100 µM | [3] > 100 µM | [4] > 100 µM | [5] > 100 µM | [6] > 100 µM | [7] > 100 µM | [8] > 100 µM | [9] > 100 µM | [10] > 100 µM | [11] > 100 µM | [12] > 100 µM | [13] > 100 µM | [14] > 100 µM | [15] > 100 µM | [16] 52.5 µM | [17] > 100 µM | [18] > 100 µM
